Among the data in ChEMBL document CHEMBL2086262, “Ligand-based designing, in silico screening, and biological evaluation of new potent fructose-1,6-bisphosphatase (FBPase) inhibitors” (Eur J Med Chem, 2012) are inhibition and IC50 values, retold here.

For experiment [1], the species on record is Homo sapiens. Put plainly: Inhibition of human recombinant FBPase using fructose-1,6-biphosphate as substrate at 10 uM incubated for 3 mins prior to substrate addition by spectrophotometric analysis.
Experiment [2] in a line: Inhibition of human recombinant FBPase using fructose-1,6-biphosphate as substrate incubated for 3 mins prior to substrate addition by spectrophotometric analysis.

Structures are written as SMILES. The source made the active and inactive calls. No cut-off for these calls is given here. Where only a bound is given, the exact number is not on record here.

Regarding `O=C(CCCOc1ccc(Cl)cc1Cl)NC(CC1NCc2ccccc21)C(=O)O` (stereo not drawn), the inhibition in experiment [1] is 67%. The IC50 in experiment [2] worked out at 5.88 µM.

`COc1cc(C2=N/C(=C\c3cccc(O)c3O)C(=O)O2)cc(OC)c1OC`: the inhibition result in experiment [1] was “inactive”.

With `CCOC(=O)c1csc(-c2csc(CCNC(=O)c3ccccc3)n2)n1`, the inhibition in experiment [1] was found to be 87%. Moreover, in experiment [2], the IC50 was determined as 0.33 µM.

On to `O=C(OCc1ccc([N+](=O)[O-])cc1)c1ccccc1[N+](=O)[O-]`, for which the inhibition in experiment [1] is 100%. For the same molecule, in experiment [2], the IC50 turned out to be 1.65 µM.

For `O=C1NC(=O)C2N=C(CNc3ccc(C(=O)O)cc3)NC2N1` (stereo not drawn), the inhibition result in experiment [1] is “inactive”.

Regarding `Cc1cc(Cl)ccc1OCCCC(=O)NC(CC(C)C)C(=O)O` (stereo not drawn), the inhibition in experiment [1] is 60%. The IC50 in experiment [2] was found to be 2.44 µM.

As for `O=S(=O)(O)c1ccccc1/C=N/N=C/c1ccccc1S(=O)(=O)O`, in experiment [1], the inhibition was found to be 100%. The IC50 in experiment [2] worked out at 0.15 µM.

On to `C[N+](C)(CCCCOc1c(Br)cc(Br)cc1Br)Cc1ccc([N+](=O)[O-])o1`, for which the inhibition in experiment [1] worked out at 100%. For the same molecule, the IC50 in experiment [2] stood at 0.7 µM.

As to `O=C(O)c1ccccc1C(=O)CCC(=O)c1ccccc1C(=O)O`, the inhibition in experiment [1] stood at 87%. The IC50 in experiment [2] amounted to 0.9 µM.

`COC(=O)CC(=O)CC(=O)c1cccc([N+](=O)[O-])c1`: the inhibition in experiment [1] was determined as 74%. For the same molecule, the 50% inhibitory concentration (IC50) in experiment [2] is 2.23 µM.

Turning to `COc1ccc(C(=O)/C=C2/Nc3ccc([N+](=O)[O-])cc3NC2=O)cc1`, the inhibition in experiment [1] turned out to be 76%. In experiment [2], the IC50 turned out to be 0.32 µM.

As to `COc1cc(/C=C/Cc2c(O)ccc3c2OCO3)cc(OC)c1OC`, the inhibition result in experiment [1] was “inactive”.

Consider `CC1(C)N=C(N)N=C(N)N1c1cccc(OCCOc2ccccc2[N+](=O)[O-])c1`, for which the inhibition in experiment [1] worked out at 100%. For the same molecule, the IC50 in experiment [2] is 0.25 µM.

For `CCOc1cc2ncnc(Nc3cc(-c4csc(C)n4)ccc3C)c2cc1OCC`, the IC50 in experiment [2] amounted to 1.8 µM.

In the case of `CCOc1cc2ncnc(Nc3cc(-c4csc(C)n4)ccc3OC)c2cc1OCC`, the IC50 in experiment [2] is 0.99 µM.

Regarding `CCN1C(=O)/C(=C/c2ccc(O)c(S(=O)(=O)O)c2)SC1=S`, the inhibition in experiment [1] is 69%. In addition, the IC50 in experiment [2] is 6.02 µM.

Regarding `C#Cc1cccc(Nc2ncnc3cc(OC)c(OC)cc23)c1`, the IC50 in experiment [2] was found to be 0.9 µM.

In the case of `CCCc1nc(Nc2cccc(-c3csc(C)n3)c2)c2cc(OCC)c(OCC)cc2n1`, in experiment [2], the IC50 came out at 1.4 µM.

As for `CCOc1cc2ncnc(Nc3cccc(-c4csc(-c5ccccc5)n4)c3)c2cc1OCC`, the IC50 in experiment [2] is > 10 µM.

As for `CCOc1cc2ncnc(Nc3cccc(-c4nc(C)cs4)c3)c2cc1OCC`, in experiment [2], the IC50 was found to be 0.65 µM.

Consider `CCOc1cc2ncnc(Nc3cccc(-c4csc(Cc5ccccc5)n4)c3)c2cc1OCC`, for which the IC50 in experiment [2] was > 10 µM.

For the molecule `CCOc1cc2ncnc(Nc3cccc(-c4csc(COC)n4)c3)c2cc1OCC`, the IC50 in experiment [2] stood at 7.3 µM.

With `CCOc1cc2ncnc(Nc3cccc(-c4csc(N(C)C)n4)c3)c2cc1OCC`, in experiment [2], the IC50 was determined as 8 µM.

Turning to `NC(=O)c1[nH]c2cc(Cl)cc(Cl)c2c1CCC(=O)O`, the IC50 in experiment [2] was > 10 µM.

In the case of `CCOc1cc2ncnc(Nc3cccc(-c4csc(OC)n4)c3)c2cc1OCC`, the IC50 in experiment [2] stood at 0.78 µM.

Regarding `CCOc1cc2ncnc(Nc3ccc(Cl)c(Cl)c3)c2cc1OCC`, the IC50 in experiment [2] is > 10 µM.

As for `CCOc1cc2nc(CN(CC)CC)nc(Nc3cccc(Br)c3)c2cc1OCC`, the IC50 in experiment [2] is > 10 µM.

On to `O=C(O)CCc1c(C(=O)O)[nH]c2cc(Cl)cc(Cl)c12`, for which, in experiment [2], the IC50 was ≥ 2.5 µM.

For `COc1cc2c(Nc3cccc(-c4csc(C)n4)c3)ncnc2cc1OC(C)(C)C`, the IC50 in experiment [2] was determined as 1.3 µM.

`COc1cc(-c2ccc(OC)nc2)c2oc(NS(=O)(=O)c3cc(Cl)ccc3Cl)nc2c1`: in experiment [2], the IC50 came to 3.5 µM.

Regarding `CCOc1cc2ncnc(Nc3cccc(-c4ccco4)c3)c2cc1OCC`, the IC50 in experiment [2] was 1.4 µM.

For `CCOc1cc2nc(CCl)nc(Nc3cccc(Br)c3)c2cc1OCC`, the IC50 in experiment [2] is > 10 µM.

Consider `COCCOc1cc2ncnc(Nc3cccc(-c4csc(C)n4)c3)c2cc1OC`, for which, in experiment [2], the IC50 is > 10 µM.

Take `CCOc1cc2nc(-n3ccnc3)nc(Nc3cccc(-c4csc(C)n4)c3)c2cc1OCC`: the IC50 in experiment [2] was determined as 0.77 µM.

On to `COc1cc2c(Nc3cccc(-c4csc(C)n4)c3)ncnc2cc1OC(C)C`, for which the IC50 in experiment [2] turned out to be 2.3 µM.

For the molecule `O=C(CCc1c(C(=O)O)[nH]c2cc(Cl)cc(Cl)c12)NO`, the IC50 in experiment [2] was 1.5 µM.

Regarding `CCOc1cc2ncnc(Nc3cc(-c4csc(C)n4)cc(C(F)(F)F)c3)c2cc1OCC`, in experiment [2], the IC50 is > 10 µM.

Turning to `O=[N+]([O-])c1cc2c(Nc3cccc(Br)c3)ncnc2cc1Cl`, the concentration for half-maximal inhibition (IC50) in experiment [2] was > 10 µM.

In the case of `C=CCN1C(=O)/C(=C/c2ccccc2OCC(=O)O)SC1=S`, the inhibition in experiment [1] stood at 77%. For the same molecule, the IC50 in experiment [2] stood at 3.46 µM.

As for `Cc1nc(-c2cccc(Nc3ncnc4cc5ccccc5cc34)c2)cs1`, the IC50 in experiment [2] was > 10 µM.

Take `CCOc1cc2nc(CC(C)C)nc(Nc3cccc(-c4csc(C)n4)c3)c2cc1OCC`: the IC50 in experiment [2] came out at 1.7 µM.

As for `CCOc1cc2nc(CCl)nc(Nc3cccc(-c4csc(C)n4)c3)c2cc1OCC`, in experiment [2], the IC50 was found to be 0.87 µM.

With `O=S(=O)(SCCCCSS(=O)(=O)c1ccc(Cl)cc1)c1ccc(Cl)cc1`, in experiment [1], the inhibition is 37%.

Regarding `CCOc1cc2ncnc(Nc3cccc(-c4nccs4)c3)c2cc1OCC`, the IC50 in experiment [2] worked out at 0.38 µM.

Turning to `CCOc1cc2ncnc(Nc3cccc(-c4csc(C(=O)O)n4)c3)c2cc1OCC`, the IC50 in experiment [2] was > 10 µM.

With `CCCCOc1ccc2ncnc(Nc3cccc(Br)c3)c2c1`, in experiment [2], the IC50 is > 10 µM.

As for `COc1cc(-c2cccc(N)c2)c2oc(NS(=O)(=O)c3cc(Cl)ccc3Cl)nc2c1`, in experiment [2], the IC50 was 0.57 µM.

As for `CCOc1cc2ncnc(Nc3cccc(-c4cscn4)c3)c2cc1OCC`, the IC50 in experiment [2] was 0.39 µM.

As to `CC1(C)C2CCC1(C)C(OCCC/N=C(\N)CSS(=O)(=O)O)C2` (stereo not drawn), the inhibition in experiment [1] came to 81%. Also, the IC50 in experiment [2] stood at 3.8 µM.

For the molecule `COCCOc1cc2ncnc(Nc3cccc(Br)c3)c2cc1OCCOC`, in experiment [2], the IC50 is > 10 µM.

By inhibition is commonly meant how much of the control response was suppressed. The term IC50 denotes the concentration needed to halve the response being measured.
